Laboratory results: paper doi:10.1101/2023.02.27.530254, “Large library docking for cannabinoid-1 receptor agonists with reduced side effects” (bioRxiv, 2024)
Read-outs that look alike come from different tables or passages of the source.

Assays:
hCB1 = hCB1 (Homo sapiens, UniProt P21554); test: bioSens-All ebBRET effector biosensor signaling profiling, HEK293; assay type: cell-based; design: host or cells: HEK293 (HEK293SL clone), transient
Method: ebBRET-based effector membrane translocation biosensor assays were conducted at Domain Therapeutics NA Inc. (Montreal, QC, Canada) as previously described. […] HEK293 cells were maintained in Dulbecco’s Modified Eagle Medium (DMEM) (Wisent) supplemented with 1% penicillin- streptomycin (Wisent) and 10% (or 2 % for transfection) fetal bovine serum (Wisent) at 37°C with 5% CO2. All biosensor-coding plasmids and related information are the property of Domain Therapeutics NA Inc. The total amount of transfected DNA was adjusted and kept constant at 1 μg per mL of cell culture to be transfected using salmon sperm DNA (Invitrogen) as ‘carrier’ DNA, PEI (polyethylenimine 25 kDa linear, PolyScience) and DNA (3:1 ml PEI:mg DNA ratio) were first diluted separately in 150 mM NaCl then mixed and incubated for at least 20 minutes at room temperature to allow for the formation of DNA/PEI complexes. During the incubation, HEK293 cells were detached, counted, and re-suspended in maintenance medium to a 350,000 cells per mL density. At the end of the incubation period, the DNA/PEI mixture was added to the cells. Cells were finally distributed in 96-well plates (White Opaque 96-well /Microplates, Greiner) at a density of 35,000 cells per well. Forty-eight hours post-transfection, medium was aspirated and replaced with 100 μl of Hank’s Balanced Salt Solution buffer (HBSS) (Wisent) per well using 450-Select TS Biotek plate washer. After 60 min incubation in this medium, 10 μL of 10 μM e-Coelenterazine Prolume Purple (Methoxy e-CTZ) (Nanolight) was added to each well for a final concentration of 1 μM immediately followed by addition of increasing concentrations of the test compounds to each well using the HP D300 digital dispenser (Tecan). All compounds were assayed at 22 concentrations with each biosensor after a 10-minute room temperature incubation period. […] All BRET ratios were standardized using the universal BRET (uBRET) equation: uBRET=BRETratio-A/B-A×10,000 where A is the BRET ratio obtained from transfection of negative control and B is the BRET ratio obtained from transfection of positive control. […] The data were analyzed using the four-parameter logistic non-linear regression model in GraphPad Prism 9.1 and data were presented as means ± CIs of 1–4 independent experiments.
The SEM was calculated for the logEmax/EC50 ratios using the following equation: SEM=σ/n where σ is the standard deviation, and n is the number of experiments.

CB1 = biological target: T1, CB1 (Rattus norvegicus, UniProt P20272); test: Radioligand competition binding with [3H]-CP-55,940, rat brain membranes; conditions: for Emax: maximal radioligand displacement, read-out: rCB1 binding Emax [SEM]; for Ki: [3H]-CP-55,940 competition, rat brain membranes
T1 construct: membrane preparations from rat brain (source of CB1); tissue Bioivt RAT00BRAINMZN; host or cells: rat brain
Method: The results were analyzed using nonlinear regression to determine the IC50 and Ki values for each ligand (Prism by GraphPad Software, Inc., San Diego, CA). The Ki values are expressed as the mean of two to three experiments each performed in triplicate.

C56BL/6 mice = test: Catalepsy test (vertical wire mesh); assay type: in vivo, mouse; conditions: non-cannabinoid positive control
Method: Thirty and 60 minutes after an i.p. injection of the compounds, mice were placed on a vertical wire mesh and the latency to move all four paws was recorded.

[1] = HEK293, read-out: hCB1 Gi1 Emax [95% CI]
[2] = HEK293, read-out: hCB1 GoB Emax [95% CI]
[3] = HEK293, read-out: hCB1 Gz Emax [95% CI]
[4] = hCB1 Gi1 EC50 [95% CI], Gi1 sensor
[5] = hCB1 GoB EC50 [95% CI], GoB sensor

Sequence of hCB1 (P21554 whole entry, the tested form may be a part): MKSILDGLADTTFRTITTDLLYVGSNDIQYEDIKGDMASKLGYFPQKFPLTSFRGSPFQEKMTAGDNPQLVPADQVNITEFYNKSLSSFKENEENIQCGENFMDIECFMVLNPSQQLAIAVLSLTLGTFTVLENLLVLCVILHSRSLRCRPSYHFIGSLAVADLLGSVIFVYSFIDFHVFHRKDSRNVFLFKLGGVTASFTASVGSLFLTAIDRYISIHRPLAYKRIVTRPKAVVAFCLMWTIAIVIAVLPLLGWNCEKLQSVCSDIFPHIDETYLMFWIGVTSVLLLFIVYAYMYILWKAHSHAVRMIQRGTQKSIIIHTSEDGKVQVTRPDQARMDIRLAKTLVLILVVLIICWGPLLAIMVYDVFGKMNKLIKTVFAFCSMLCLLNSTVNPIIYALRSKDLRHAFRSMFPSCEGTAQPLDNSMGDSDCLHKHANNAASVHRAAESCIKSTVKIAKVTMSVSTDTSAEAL
T1 sequence (P20272 whole entry): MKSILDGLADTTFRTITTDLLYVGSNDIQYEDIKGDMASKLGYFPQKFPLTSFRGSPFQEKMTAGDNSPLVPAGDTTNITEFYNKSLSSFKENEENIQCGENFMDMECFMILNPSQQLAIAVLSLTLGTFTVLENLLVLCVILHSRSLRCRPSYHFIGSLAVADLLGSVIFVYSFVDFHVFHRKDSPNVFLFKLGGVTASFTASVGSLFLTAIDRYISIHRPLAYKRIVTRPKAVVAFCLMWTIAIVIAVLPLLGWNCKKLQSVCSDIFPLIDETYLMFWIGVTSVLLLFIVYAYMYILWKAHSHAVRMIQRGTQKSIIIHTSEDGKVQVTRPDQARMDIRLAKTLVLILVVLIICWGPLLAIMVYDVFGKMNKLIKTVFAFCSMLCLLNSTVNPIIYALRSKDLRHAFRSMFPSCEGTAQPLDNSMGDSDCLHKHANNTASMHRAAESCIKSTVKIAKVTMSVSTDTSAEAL

| Compound | Emax (hCB1; [1]) [%] | Emax (hCB1; [2]) [%] | Emax (hCB1; [3]) [%] | EC50 (hCB1; hCB1 Gi1 EC50 [95% CI]) [nM] | EC50 (hCB1; hCB1 GoB EC50 [95% CI]) [nM] | Emax (CB1) [%] | Ki (CB1; rCB1 binding Ki [95% CI]) [nM] | other results |
| --- | --- | --- | --- | --- | --- | --- | --- | --- |
| Cc1cc(C(=O)N2CC3(CCC3)[C@H]2[C@@H]2CCCO2)nn1-c1cccc(C(F)(F)F)c1 [‘3737a] | 98 | 118 | 140 | 2800 | 6730 |  |  | EC50 (hCB1; hCB1 Gz EC50 [95% CI]): 2470 nM; EC50 (hCB1; hCB1 Gz pEC50 [95% CI]): 2510 nM |
| Cc1cc(C(=O)N2CC3(CCC3)[C@H]2[C@H]2CCCO2)nn1-c1cccc(C(F)(F)F)c1 [‘3737b] | 89 | 152 | 231 | 3030 | 19800 |  |  | EC50 (hCB1; hCB1 Gz EC50 [95% CI]): 30800 nM |
| CC(=O)C(C)(NC(=O)c1cc(C)n(-c2cccc(C(F)(F)F)c2)n1)c1cccs1 (stereo not drawn) [‘4156] |  |  |  |  |  | 91 | 13.5 |  |
| Cc1cc(C(=O)N2CC3(CCC3)[C@@H]3COC[C@@H]32)nn1-c1cccc(C(F)(F)F)c1 [10_14] |  |  |  |  |  |  |  | % [3H]-CP-55,940 displacement (mean) from single point screen (CB1; screens at 10 μM (white cells), 1 μM (orange) or 300 nM (green), cell colours not visible): 91.30% |
| CCCCCCC(C)(C)c1cc(O)c2c(c1)OC(C)(C)C1CCC(=O)CC21 (stereo not drawn) [Nabilone, reference compound] |  |  |  |  |  | 81 |  | Ki (CB1; rCB1 binding pKi [95% CI]): 2.51 nM |
| COC(=O)C(NC(=O)c1cc(C)n(-c2cccc(C#N)c2)n1)c1ccsc1 (stereo not drawn) [‘31604] |  |  |  |  |  | 100 | 801 |  |
| Cc1cc(C(=O)NC(c2ccccc2)c2ccco2)nn1-c1cccc(C#N)c1 (stereo not drawn) [‘12565] | 28 | 25 | 51 |  |  | 97 | 301 | EC50 (hCB1; [4]): 104 nM; EC50 (hCB1; [5]): 44.8 nM; EC50 (hCB1; hCB1 GoB pEC50 [95% CI], GoB sensor): 39.8 nM; EC50 (hCB1; hCB1 Gz EC50 [95% CI], Gz sensor): 54.6 nM |
| Cc1cc(C(=O)NC(c2ccco2)c2ccco2)nn1-c1cccc(C(F)(F)F)c1 [‘1090] | 81 | 90 | 115 |  |  | 99 | 90.8 | EC50 (hCB1; [4]): 35.6 nM; EC50 (hCB1; hCB1 Gi1 pEC50 [95% CI], Gi1 sensor): 31.6 nM; EC50 (hCB1; [5]): 37.3 nM; EC50 (hCB1; hCB1 Gz EC50 [95% CI]): 126 nM |
| Cn1nc(-c2nnc(C(C)(C)Oc3ccc(C(F)(F)F)cc3)o2)c2ccccc2c1=O [‘2153] | 89 | 109 |  | 1010 | 2060 | 82.6 | 163 |  |
| O=C(CCCN1CCC(O)(c2ccc(Cl)cc2)CC1)c1ccc(F)cc1 [haloperidol, reference compound] |  |  |  |  |  |  |  | catalepsy (C56BL/6 mice): dramatic catalepsy |
| Cc1c(C(=O)OCC2CSc3ccccc3O2)cnn1Cc1ccccc1 (stereo not drawn) [‘7800] | 34 | 21 |  | 6790 | 597 |  | 1010 |  |
| COC(=O)C(NC(=O)c1cc(-c2ccccc2)n(-c2cccc(C(F)(F)F)c2)n1)c1cccs1 (stereo not drawn) [‘8079] |  |  |  |  |  | 104 | 18.5 |  |
| COC(=O)C(c1ccco1)N(C)C(=O)c1cc(C)n(-c2cccc(C(F)(F)F)c2)n1 (stereo not drawn) [‘6425] |  |  |  |  |  | 108 | 934 |  |
